Assay results taken from patent US12410124B2 (priority 2019, dated 2025).
Where two headings read alike, the source gives them in different places.

Assays:
[1] = system: primary glial cells; test: Inhibition of the NO release of primary glial cells induced by LPS; type: cell-based, rat; conditions: for inhibition at 5 µM / inhibition at 10 µM / inhibition at 20 µM / inhibition at 2 µM: Rattus norvegicus, Glial cell, read-out: NO inhibition (%)
Excerpt: Lipopolysaccharide (LPS) is a main component of the cell wall of Gram-negative bacteria. It is a potent inflammatory factor that can directly activate gliocytes, and the activated gliocytes secrete a large amount of inflammation mediators such as tumor necrosis factor, interleukin, and nitric oxide, thus causing inflammatory reactions and oxidative stress reactions and eventually leading to neuronal denaturation and death. In recent years, the targeted injection of LPS into rat substantia nigra or striatum to induce neuroinflammation can successfully establish PD models, which can simulate most of the clinical manifestations and pathological features of PD, and are used for the study on the neuroinflammation mechanism associated with PD. LPS-induced primary glial cell PD inflammation model is suitable for the preliminary anti-neuroinflammation screening for neuroprotective agents. LPS is used to directly activate primary glial cells to simulate the pathogenesis mechanism of neuroinflammation, and the inhibitory activity of the target compounds on the inflammatory response of primary glial cells can be investigated.
The materials were taken from the brain tissue of fetal rat, for primary glial cell culture. At 7 to 10 days of the culture, LPS was added for the activation of nitric oxide (NO) release in glial cells. When a target compound was added, the reduction value for NO content in the cell culture medium was measured, to evaluate the anti-neuroinflammation activity of the compound. The experiment included blank control group, LPS model group, positive control group (caffeic acid phenethyl ester, CAPE), prototype control group (styryl sulfone compounds 3B, 3C, 3D, and 3G, the structures of which compounds are shown as above), and target compound group.

[2] = system: midbrain TH; test: Midbrain TH expression in MPTP Parkinson's disease model mouse (western-blotting); type: in vivo; conditions: midbrain total protein, GAPDH internal reference, gavage 21 days after MPTP modeling
Procedure: (§1) Neurotoxins can be used to establish PD animal models. Currently, 1-methyl-4-phenyl-1,2,3,6-tetrahydropyridine (MPTP) is the sole synthetic toxin which is recognized to induce PD symptoms in human and non-human primates and in mice. Using MPTP subacute modeling method, C57BL/6J male mice were intraperitoneally injected with MPTP 30 mg/kg, once a day for 5 consecutive days. The experiment animals were divided into blank control group, MPTP model group, and compound treatment group. For the […] compound treatment group, the compound was administrated by gavage for 21 consecutive days after the completion of modeling; for the MPTP model group, the normal saline was administrated by gavage for 21 consecutive days after the completion of modeling; and for the blank control group, the normal saline was first intraperitoneally injected for 5 days, and then administrated by gavage for 21 days.
The main cause of PD lies in the pathological changes in the substantia nigra-striatum projection system of the brain and the progressive degeneration and loss of dopaminergic neurons. Tyrosine hydroxylase (TH) is the first enzyme in the biosynthesis of catecholamine neurotransmitters, as well as the first rate-limiting enzyme in the dopamine synthesis. It plays an important role in the synthesis and metabolism of the neurotransmitter DA. The TH in PD animal models and patients has a wide range of abnormal changes, from the gene expression to the enzyme protein content and enzyme activity. The detection of the TH expression in the midbrain and substantia nigra of PD model mice can be used to evaluate the neuroprotective activity of the compound.
Half of experiment mice in each group were taken to extract the total midbrain protein, and the change in the midbrain TH was determined by western-blotting using GAPDH as the internal reference. The experiment included blank control group, MPTP model group, positive control group (caffeic acid phenethyl ester, CAPE), prototype control group (styryl sulfone compounds 3B, 3C, 3D, and 3G, whose structures are shown as above), and target compound group.

[3] = system: midbrain CD11b; test: Midbrain CD11b protein expression in MPTP Parkinson's disease model mouse (western-blotting); type: in vivo; conditions: for Expression (CD11b/GAPDH): midbrain, MPTP Parkinson's disease model mouse, western-blotting
Procedure: as §1
(§2) Neuron-glial cell network homeostasis disorder is an important factor for the selective and progressive death of substantia nigra dopaminergic neurons in PD. In the neurotoxic effect of MPTP, the excessive activations of microglial cells and astrocytes produce a variety of inflammatory cytokines and reactive oxygen species (ROS). These inflammatory factors and ROS amplify their respective toxicities and mediate malignant feedback loop, causing a cascade inflammation response and aggravating the pathological process of PD. CD11b and GFAP are the marker proteins for activations of microglial cells and astrocytes, respectively. Therefore, the effect of the target compounds on the activations of the microglial cells and astrocytes in the substantia nigra, hippocampus, and midbrain areas of MPTP-induced PD mice can be investigated, to explore the mechanism of the anti-PD effect of the target compounds by inhibiting the neuroinflammation.
[…] The experiment included blank control group, MPTP model group, positive control group (caffeic acid phenethyl ester, CAPE), prototype control group (styryl sulfone compounds 3B, 3C, 3D), and 3G, whose structures are shown as above), and target compound group.

[4] = system: hippocampus GFAP; test: Number of hippocampus astrocytes with GFAP positive expression in MPTP Parkinson's disease model mouse (immunohistochemistry); type: in vivo; conditions: for Positive cell number (astrocytes with GFAP positive expression): hippocampus, MPTP Parkinson's disease model mouse, immunohistochemistry
Procedure: as §1, §2
Half of experiment mice in each group were taken to separate the midbrain after perfusion and fixation. The tissue was trimmed, and the hippocampus area was taken to prepare paraffin sections. The GFAP immunohistochemical staining was performed for the statistics of the change in the number of astrocytes with GFAP positive expression. The experiment included blank control group, MPTP model group, positive control group (caffeic acid phenethyl ester, CAPE), prototype control group (styryl sulfone compounds 3B, 3C, 3D, and 3G, whose structures are shown as above), and target compound group.

[5] = system: HO-1; test: Midbrain HO-1 expression in MPTP Parkinson's disease model mouse (western blot); type: in vivo; conditions: for Expression (HO-1/GAPDH): midbrain, MPTP Parkinson's disease model mouse, western blot
Procedure: as §1
Oxidative stress is an important pathogenic mechanism of PD. Dopaminergic neurons are more sensitive to oxidative stress and are more susceptible to oxidative stress damage. Heme oxygenase (HO-1), a phase II enzyme, is also a well-known antioxidase. It plays an important protective role by catalyzing the conversion of free radicals into non-toxic products and increasing their water solubility to facilitate the elimination of free radicals, and maintain the redox balance in the body. It plays an important role in the process of protecting cells against oxidative stress damage. The activation of p38 protein phosphorylation has a negative regulatory effect on phase II enzymes. […] Using HO-1 as an indicator, the inhibitory effect of the target compounds on MPTP-induced oxidative stress damage in PD mice can be investigated.
HO-1 is expressed in astrocytes, microglial cells, and neurons. The total proteins of the midbrain tissue of mice in each experiment group were extracted, to determine the expression of phase II enzyme HO-1 in the midbrain of mice by western blot using GAPDH as the internal reference. The experiment included blank control group, MPTP model group, positive control group (caffeic acid phenethyl ester, CAPE), prototype control group (styryl sulfone compounds 3B, 3C, 3D, and 3G, whose structures are shown as above), and target compound group.

| Compound | inhibition at 5 µM ([1]; 5 μM) | inhibition at 10 µM ([1]; 10 μM) | inhibition at 20 µM ([1]; 20 μM) | Expression (TH/GAPDH) [2] | Expression (CD11b/GAPDH) [3] | Positive cell number (astrocytes with GFAP positive expression) [4] | Expression (HO-1/GAPDH) [5] | inhibition at 2 µM [1] | inhibition at 5 µM [1] | inhibition at 10 µM [1] | NO inhibitory rate compared with the styryl sulfone prototype compounds [1] | inhibition at 2 µM ([1]; 2 μM) | midbrain CD11b protein expression compared with the styryl sulfone prototype compounds [3] | number of hippocampus astrocytes with GFAP positive expression compared with the styryl sulfone prototype compounds [4] | midbrain HO-1 expression compared with the styryl sulfone prototype compounds [5] | inhibition at 20 µM [1] | NO inhibition (%) ([1]; 2 μM) | NO inhibition (%) ([1]; 5 μM) | NO inhibition (%) ([1]; 10 μM) |
| --- | --- | --- | --- | --- | --- | --- | --- | --- | --- | --- | --- | --- | --- | --- | --- | --- | --- | --- | --- |
| O=S(=O)(/C=C/c1ccc(O)c(O)c1)Cc1ccc(C(F)(F)F)cc1 [Compound 3B, (E)-4-{2-[(4-trifluoromethylphenyl)mesyl]ethenyl}benzene-1,2-diol, reference compound] | 17.2 ± 4.56% | 38.6 ± 2.13% | 92 ± 3.01% | 0.53 ± 0.03 | 1.31 ± 0.10 | 118 ± 8 | 0.56 ± 0.03 | – | – | – | – | – | – | – | – | – | – | – | – |
| CN(C)c1ccc(CC(=O)Oc2cc(/C=C/S(=O)(=O)C(Br)c3ccc(Cc4ccc(N(C)C)cc4)cc3)ccc2OC(=O)N2CCCC2C(F)(F)F)cc1 (centres unmarked) [Compound M1-5] | 21.2 ± 3.12% | 45.6 ± 4.28% | 66.7 ± 4.02% | 0.83 ± 0.06 | 0.83 ± 0.07 | 67 ± 6 | 0.96 ± 0.08 | – | – | – | – | – | – | – | – | – | – | – | – |
| CCN(C)C(=O)Oc1ccc(/C=C/S(=O)(=O)CC(c2ccc(-c3ccc(OC)c(OC)c3)cc2)[N+](=O)[O-])cc1OC(=O)N(C)CC (centres unmarked) [Compound M1-1, (E)-4-{2-[2-(3′,4′-dimethoxy-[1,1′-biphenyl]-4-yl)-2-nitroethylsulfonyl]ethenyl}-1,2-phenylenebis(N-ethyl-N-methylcarbamate)] | – | – | – | 1.35 ± 0.04 | 0.46 ± 0.04 | 51 ± 5 | 1.29 ± 0.07 | 38.3 ± 3.42% | 52.9 ± 5.36% | 82.7 ± 2.47% | – | – | – | – | – | – | – | – | – |
| CCN(CC)C(=O)Oc1ccc(/C=C/S(=O)(=O)Cc2ccc(C(C)(C)C)cc2)cc1OC(=O)N(CC)CC [Compound G1-1, (E)-4-{2-[(4-t-butylphenyl)mesyl]ethenyl}-1,2-phenylenebis(diethylcarbamate)] | 64.2 ± 3.25% | 85.8 ± 5.01% | – | 0.70 ± 0.03 | 0.50 ± 0.06 | 66 ± 4 | 1.35 ± 0.10 | – | – | – | equivalent or higher inhibitory rate | 27.2 ± 3.98% | equivalent or lower | significantly lower | significantly higher | – | – | – | – |
| COc1cc(/C=C/S(=O)(=O)Cc2cc(OC)c(OC)c(OC)c2)ccc1OC(=O)N(c1ccccc1)c1ccccc1 [Compound K3-3, (E)-2-methoxy-4-{2-[(3,4,5-trimethoxyphenyl)mesyl]ethenyl}-phenyl-N,N-diphenylcarbamate] | 17.6 ± 3.24% | 40.6 ± 3.11% | 72.5 ± 6.08% | 1.15 ± 0.05 | 1.15 ± 0.07 | 69 ± 3 | 0.69 ± 0.07 | – | – | – | – | – | – | – | – | – | – | – | – |
| COc1ccc(CC(=O)Oc2ccc(C(N)CS(=O)(=O)/C=C/c3ccc(OC(C)(C)C)c(OC(=O)N(C)c4ccccc4)c3)cc2)cc1 (centres unmarked) [Compound P1-3, (E)-4-{1-amino-2-[4-t-butoxy-3-(N-methyl-N-phenylcarbamoyloxy)styrylsulfonyl]ethyl}phenyl-2-(4-methoxyphenyl)acetate] | – | – | – | 0.77 ± 0.03 | 1.09 ± 0.08 | 74 ± 3 | 0.77 ± 0.10 | – | 25.8 ± 4.25% | 42 ± 5.34% | – | – | – | – | – | 58.2 ± 3.66% | – | – | – |
| CCN(CC)C(=O)Oc1ccc(/C=C/S(=O)(=O)Cc2ccc(Cl)cc2)cc1OC(=O)N(CC)CC [Compound D1-1, (E)-4-{2-[(4-chlorophenyl)mesyl]ethenyl}-1,2-phenylenebis(diethylcarbamate)] | 61.4 ± 2.77% | 84.5 ± 7.56% | – | 1.27 ± 0.05 | 0.33 ± 0.05 | 58 ± 5 | 1.63 ± 0.12 | – | – | – | equivalent or higher inhibitory rate | 24.8 ± 4.08% | equivalent or lower | significantly lower | significantly higher | – | – | – | – |
| (E)-2-[(methylamino)methoxy]-4-{2-[1-(4′-nitro-[1,1′-biphenyl]-4-yl)ethylsulfonyl]ethenyl}phenylcarbamate [Compound M1-3] | – | – | – | 0.84 ± 0.06 | 0.84 ± 0.06 | 57 ± 3 | 0.80 ± 0.09 | – | – | – | – | – | – | – | – | – | 23.93 ± 4.67% | 47.42 ± 4.43% | 73.41 ± 4.83% |
| O=S(=O)(/C=C/c1ccc(O)c(O)c1)Cc1ccc(Cl)cc1 [Compound 3D, (E)-4-{2-[(4-chlorophenyl)mesyl]ethenyl}benzene-1,2-diol, reference compound] | 34.6 ± 4.89% | 74.7 ± 3.32% | – | 0.93 ± 0.06 | 1.30 ± 0.10 | 106 ± 6 | 1.03 ± 0.20 | – | – | – | – | 23.5 ± 8.05% | – | – | – | – | – | – | – |
